Test results from article PMC11653702, “Targeting the SPC25/RIOK1/MYH9 Axis to Overcome Tumor Stemness and Platinum Resistance in Epithelial Ovarian Cancer” (Advanced Science, 2024).
Several values for one entry are separate records, joined by “and”; a condition that tells them apart may be missing. Equal values may be shown once.

How the values were obtained:
OVCAR3 cells [1] = assay: Cell Counting Kit-8 viability, OVCAR3; format: cell-based, human; details: SPC25-overexpressing OVCAR3
Experimental: (§1) Cell Viability Assay: The indicated cells were seeded into 96-well plates at a density of 4 × 10^3 cells per well. Next, the Cell Counting Kit-8 reagent (Dojindo) was added to the wells, followed by incubation at 37°C for 2 h in the dark, after which the optical density at 450 nm was determined on a microplate reader (EPOCH2; BioTek, USA). Each cell line was represented using triplicate wells, and the experiment was repeated three times.

SKOV3 cells [2] = assay: Annexin V/PI apoptosis, SKOV3; format: cell-based, human; details: replicates #1-#3
Experimental: (§2) Fluorescence-Activated Cell Sorting Assay: For apoptosis analysis, we used an Annexin V-FITC/PI Apoptosis Detection Kit (#A211-01; Vazyme Biotech), according to the manufacturer’s instructions. We considered the total proportion of Annexin V-positive cells (quadrants II and III) to be the apoptotic rate, regardless of the PI status. All samples were analyzed on a flow cytometer (cytoFLEX LX; Beckman Coulter, Indianapolis, IN, USA), and percentages of apoptotic cells were analyzed using CytExpert (Beckman Coulter).

OVCAR8 cells [3] = assay: Intraperitoneal tumor model, bioluminescence, OVCAR8; format: in vivo, human EOC cells in BALB/c-Nude mice; details: SPC25-silenced OVCAR8, CDDP
From the text: (§3) Subsequently, we selected 4 representative EOC cell lines (Figure S1F,G, Supporting Information) and validated the role of SPC25 in mediating platinum resistance in EOC through a series of in vitro and in vivo experiments. […] To further establish an EOC mouse model, we intraperitoneally injected BALB/c‐Nude mice with EOC cells with stable luciferase expression. CDDP treatment (three times per week, a week as a cycle) was initiated when the bioluminescence signal reached 2 × 10^7 p/s/cm^2/sr.
(§4) In the intraperitoneal tumor model, 1 × 10^6 of the indicated cells stably expressing luciferase were injected intraperitoneally into the mice. Treatment with saline (Vehicle), CDDP (5 mg/kg, 3 times per week for 1 week), CBP1 (10 mg/kg, once in 2 days), or a combination of CDDP (5 mg/kg, 3 times per week for 1 week) and CBP1 (10 mg/kg, once in 2 days) was initiated when the bioluminescence signal reached 2 × 10^7 p/s/cm^2/sr for 6 weeks of continuous treatment cycles. The mice were sacrificed when they became moribund, as determined by an observer blinded to the treatment. Finally, their tumors were excised for qRT‐PCR and Western blotting.

COV644 cells [4] = assay: Cell Counting Kit-8 viability, COV644; format: cell-based, human; details: SPC25-overexpressing COV644
Experimental: as §1

OVCAR3 cells [5] = assay: Intraperitoneal tumor model, bioluminescence, OVCAR3; format: in vivo, human EOC cells in BALB/c-Nude mice; details: SPC25-overexpressing OVCAR3, 6 weeks CDDP
From the text: as §3, §4

OVCAR3 cells [6] = assay: Survival of intraperitoneal tumor-bearing nude mice, OVCAR3; format: in vivo, human EOC cells in BALB/c-Nude mice
From the text: as §3, §4

COV644 cells [7] = assay: Annexin V/PI apoptosis, COV644; format: cell-based, human; details: for PI+/AnnexinV+: replicates #1-#3
Experimental: as §2

SKOV3 cells [8] = assay: Cell Counting Kit-8 viability, SKOV3; format: cell-based, human; details: SPC25-silenced SKOV3
Experimental: as §1

OVCAR3 cells [9] = assay: Annexin V/PI apoptosis, OVCAR3; format: cell-based, human; details: for PI+/AnnexinV+: replicates #1-#3
Experimental: as §2

OVCAR8 cells [10] = assay: Survival of intraperitoneal tumor-bearing nude mice, OVCAR8; format: in vivo, human EOC cells in BALB/c-Nude mice; set-up: key to Survival status: 0: Alive; 1: Dead; details: for Survival status / Survival time (Days after CDDP treatment): Balb/c Nude mice; for Survival time (Days after CDDP treatment): >= means alive at this day
From the text: as §3, §4

OVCAR8 cells [11] = assay: Cell Counting Kit-8 viability, OVCAR8; format: cell-based, human; details: SPC25-silenced OVCAR8
Experimental: as §1

[12] = test system: OVCAR3 xenografted tumor tissues; assay: TUNEL assay in intraperitoneal xenografted tumor tissues, OVCAR3; format: in vivo, human EOC cells in BALB/c-Nude mice; details: for TUNEL+ cell (%): CDDP-treated mice, #1-#6
Experimental: as §4
TUNEL Assay: The TUNEL staining procedure was conducted on the DeadEnd Fluorometric TUNEL System (#G3250; Promega), according to the manufacturer’s instructions. In brief, paraffin-embedded sections were baked at 65°C for 60 min, followed by three washes in a xylene bath. The sections were then washed in a series of absolute ethanol, 95% ethanol, and 70% ethanol, and finally, in PBS. Then, each section was treated with proteinase K at 37°C for 30 min and washed three times with PBS. Thereafter, the sections were incubated with […] (containing Biotin-11-dUTP and TdT Enzyme) at 37 ℃ for 1 h in the dark, followed by three PBS washes. The samples were subsequently incubated with streptavidin–fluorescein at 37 ℃ for 30 min in the dark, followed by three washes with PBS. DAPI was used to stain the nucleus. Finally, the experimental outcomes were observed under a fluorescence microscope, and the percentages of TUNEL-positive cells were quantified from 10 randomly selected fields.

OVCAR8 cells [13] = assay: Annexin V/PI apoptosis, OVCAR8; format: cell-based, human; details: replicates #1-#3
Experimental: as §2

[14] = SPC25-overexpressing OVCAR3, CDDP

How did the “cell growth in presence of CDDP” value (OVCAR3 cells [1]) turn out when `[NH2][Pt]([NH2])([Cl])[Cl]` [CDDP, cisplatin] was run?
The value was “significantly promoted growth”.

And the “PI+/AnnexinV+” value (SKOV3 cells [2]; SKOV3 Scramble, CDDP 10μM)?
The value was 8.18 and 6.89 and 9.75.

And the “PI+/AnnexinV+” value (SKOV3 cells [2]; SKOV3 sh-SPC25#1, CDDP 10μM)?
Its value is 30.36 and 26.95 and 22.58.

And the “PI+/AnnexinV+” value (SKOV3 cells [2]; SKOV3 sh-SPC25#2, CDDP 10μM)?
The value was 29.63 and 24.64 and 23.77.

What about the “CDDP sensitivity, apoptotic index and survival” value (OVCAR8 cells [3]) of the same compound?
The value was “increase in CDDP sensitivity and apoptotic index, as well as prolonged survival”.

What about the “cell growth in presence of CDDP” value (COV644 cells [4]) of the same compound?
Its value is “significantly promoted growth”.

What about the “CDDP resistance of tumors” value (OVCAR3 cells [5]) of the same compound?
The value was “notable increase in CDDP resistance”.

And the “Survival, days after CDDP treatment” value (OVCAR3 cells [6]; OVCAR3 SPC25-overexpressing, status 1, individual mice)?
Its value is 50 days and 52 days and 51 days and 55 days and 62 days.

And the “Survival, days after CDDP treatment” value (OVCAR3 cells [6]; OVCAR3 Vector, status 0, individual mice)?
Its value is 70 days and 64 days and 82 days and 85 days.

What about the “Survival, days after CDDP treatment” value (OVCAR3 cells [6]; OVCAR3 Vector, status 1, individual mice) of the same compound?
Its value is 58 days and 62 days.

What about the “survival of tumor-bearing mice” value (OVCAR3 cells [6]; [14]) of the same compound?
Its value is “decreased survival”.

And the “PI+/AnnexinV+” value (COV644 cells [7]; COV644 SPC25, CDDP 10μM)?
The value was 9.53 and 5.89 and 7.71.

What about the “PI+/AnnexinV+” value (COV644 cells [7]; COV644 Vector, CDDP 10μM) of the same compound?
Its value is 23.38 and 26.97 and 27.94.

And the CDDP-induced apoptosis (COV644 cells [7]; SPC25-overexpressing COV644)?
Its CDDP-induced apoptosis is “considerably reduced”.

And the CDDP sensitivity (SKOV3 cells [8])?
The CDDP sensitivity was “enhanced CDDP sensitivity”.

What about the “PI+/AnnexinV+” value (OVCAR3 cells [9]; OVCAR3 SPC25, CDDP 10μM) of the same compound?
Its value is 9.75 and 8.73 and 6.45.

What about the “PI+/AnnexinV+” value (OVCAR3 cells [9]; OVCAR3 Vector, CDDP 10μM) of the same compound?
The value was 21.37 and 25.13 and 28.24.

And the CDDP-induced apoptosis (OVCAR3 cells [9]; SPC25-overexpressing OVCAR3)?
Its CDDP-induced apoptosis is “considerably reduced”.

And the Survival status (OVCAR8 cells [10]; at the day of E151, animal 1)?
The Survival status was 1.

What about the Survival status (OVCAR8 cells [10]; at the day of E152, animal 2) of the same compound?
The Survival status was 1.

And the Survival status (OVCAR8 cells [10]; at the day of E153, animal 3)?
Its Survival status is 1.

And the Survival status (OVCAR8 cells [10]; at the day of E154, animal 4)?
Its Survival status is 1.

And the Survival status (OVCAR8 cells [10]; at the day of E155, animal 5)?
Its Survival status is 1.

What about the Survival status (OVCAR8 cells [10]; at the day of E156, animal 6) of the same compound?
Its Survival status is 1.

What about the Survival status (OVCAR8 cells [10]; at the day of E157, animal 7) of the same compound?
The Survival status was 1.

And the “Survival time (Days after CDDP treatment)” value (“Survival time” below) (OVCAR8 cells [10]; animal 1)?
The value was 59 days.

And the “Survival time” value (OVCAR8 cells [10]; animal 2)?
Its value is 50 days.

What about the “Survival time” value (OVCAR8 cells [10]; animal 3) of the same compound?
Its value is 52 days.

What about the “Survival time” value (OVCAR8 cells [10]; animal 4) of the same compound?
Its value is 56 days.

And the “Survival time” value (OVCAR8 cells [10]; animal 5)?
The value was 57 days.

What about the “Survival time” value (OVCAR8 cells [10]; animal 6) of the same compound?
The value was 60 days.

What about the “Survival time” value (OVCAR8 cells [10]; animal 7) of the same compound?
The value was 61 days.

What about the “Survival, days after CDDP treatment” value (OVCAR8 cells [10]; OVCAR8 sh-SPC25#1, status 0, individual mice) of the same compound?
Its value is 63 days and 79 days and 89 days.

And the “Survival, days after CDDP treatment” value (OVCAR8 cells [10]; OVCAR8 sh-SPC25#1, status 1, individual mice)?
Its value is 72 days and 59 days and 60 days.

And the “Survival, days after CDDP treatment” value (OVCAR8 cells [10]; OVCAR8 sh-Scramble, status 1, individual mice)?
The value was 54 days and 50 days and 55 days and 53 days and 57 days.

What about the CDDP sensitivity (OVCAR8 cells [11]) of the same compound?
Its CDDP sensitivity is “enhanced CDDP sensitivity”.

And the “TUNEL+ cell (%)” value ([12]; OVCAR3 SPC25-overexpressing)?
Its value is 8.84% and 3.44% and 6.27% and 4.43% and 7.25% and 8.02%.

What about the “TUNEL+ cell (%)” value ([12]; OVCAR3 Vector) of the same compound?
Its value is 31.16% and 27.27% and 21.88% and 26.01% and 32.74% and 29.56%.

And the TUNEL-positive cells [12, 14]?
Its TUNEL-positive cells is “reduced number”.

What about the “PI+/AnnexinV+” value (OVCAR8 cells [13]; OVCAR8 Scramble, CDDP 10μM) of the same compound?
Its value is 7.42 and 8.61 and 9.34.

And the “PI+/AnnexinV+” value (OVCAR8 cells [13]; OVCAR8 sh-SPC25#1, CDDP 10μM)?
The value was 24.86 and 27.38 and 21.74.

What about the “PI+/AnnexinV+” value (OVCAR8 cells [13]; OVCAR8 sh-SPC25#2, CDDP 10μM) of the same compound?
Its value is 24.57 and 21.02 and 29.26.
